{"source": "patent US20230157994A1", "about": "(priority 2020, published 2023)", "key": {"ARDS patients": {"tested_on": "ARDS patients", "settings": "at days 28; cited from earlier work"}, "[1]": {"tested_on": "neutrophils (DAPI-CD16+, DAPI-CD16+CXCR4-, DAPI-CD16+CXCR4+)", "settings": "for % of neutrophils' migration decrease with plerixafor vs vehicle in response to COVID-19 serum: DAPI-CD16+CXCR4+ cells", "description": "Neutrophils were isolated from 6 patients of the COBRA cohort (COPD and asthma patient cohort). […] Cells were next plated in the upper compartment of a modified Boyden chamber for migration assay in 0.2 mL HBSS, containing 0.5% HSA medium. HBSS, 0.5% HSA or HBSS, 0.5% HSA+sera (10% diluted) from severe COVID-19 patients were added to the bottom compartment of each well. […] Cell identities and counts were analysed by FACS method.\nNeutrophils are isolated according to the method described by Hard, et al., (Infiltrated neutrophils acquire novel chemokine receptor expression and chemokine responsiveness in chronic inflammatory lung diseases. J. Immunol. Baltim. Md 1950. 181:8053-8067). Neutrophils were freshly isolated from blood of COPD patients over isotonic Percoll density gradient. The neutrophils were recovered, washed twice with HBSS containing 20 mM HEPES and 0.1% (w/v) BSA and resuspended in HBSS, 20 mM HEPES, and 0.1% (w/v) BSA at a cell concentration of 5×10^5 in 0.2 mL.\nNeutrophil migration was assessed using a Boyden chamber assay, using transwell inserts (pore size 8 um). A total of 5x 10^5 neutrophils cells in 0.2 mL HBSS, containing 0.5% HSA were added to the upper compartment of each well. […] HBSS, 0.5% HSA and Sera (10% diluted) from severe COVID-19 patients was added to the bottom compartment of each well.\nAfter neutrophils' recovery from lower chamber, FACS tubes were centrifuged 5 min, 4° C. at 500 g. Fixation and permeabilization of cells were as follow: 0.3 mL of Cytofix/Cytoperm were added for 15 min (tube are protected from light). Next, 400 μL of permeabilization buffer was added and cells were processed for centrifugation for 5 min, 4° C., 400 g. Supernatant was discarded, and cells were processed for antibody staining. Cells were incubated 40 min at 4° C. with anti-CD16 to account for all neutrophils, anti-CXCR4 to specifically account for CXCR4 expressing neutrophils. Next, 400 μL of permeabilization buffer was added, and cells were centrifuged 5 min at 4° C., 400 g. After supernatant was discarded, cells were incubated with appropriate secondary antibody for 40 min at 4° C. Finally, cells were incubated with DAPI at 4° C. After DAPI incubation (to exclude dying cells from FACS counts), 400 μL of PBS 1× were added and cells were centrifuged for 5 min at 4° C., 400 g. Cells were resuspended in 300 μL of PBS 1×. To obtain absolute values of migratory cells, flow cytometric counts for each condition were obtained during a constant predetermined time period (1 min).\nEach condition treatment was run in duplicate."}, "SARS-CoV-2": {"tested_on": "SARS-CoV-2", "settings": "for body weight loss kinetic: versus vehicle mice"}, "Citrullinated histone H3": {"tested_on": "Citrullinated histone H3", "settings": "for effect on level of citrullinated histone H3 / NETosis: RNA virus infected mice, 3 mg/kg/day, versus infected vehicle group"}, "severe COVID-19 patients": {"tested_on": "severe COVID-19 patients", "settings": "estimate for sample size", "excerpt": "Sample size is based on the following assumptions: • 1. Current estimate of the proportion of patients in ICU with critical stage COVID-19 and requiring mechanical ventilation (50% as per Bichat and Bordeaux CHUs), • 2. […] A two-sided analysis, with α=0.05."}, "[2]": {"tested_on": "COVID-19-related ARDS patients", "settings": "hypothesis; in combination with best available treatment", "description": "Ventilator-free days (VFDs) at 28 days are one of several organ failure-free outcome measures to quantify the efficacy of therapies and interventions. VFDs are typically defined as follows: • a. VFDs=0 if subject dies within 28 days of mechanical ventilation. • b. VFDs=28−x if successfully liberated from ventilation x days after initiation. • c. VFDs=0 if the subject is mechanically ventilated for >28 days.\n4 groups of patients (placebo, pleri 10, pleri 20, pleri 40 μg/kg bid) will be planned."}}, "note": "Several values for one entry are separate records, joined by “and”; a condition that tells them apart may be missing. Equal values may be shown once. Read-outs that look alike come from different tables or passages of the source."}
{"molecule": "Tocilizumab: an anti-IL6 human monoclonal antibody marketed by Genentech under the tradename Actemra for treating rheumatoid arthritis", "values": [{"measurement": "VFDs (ventilator-free days)", "setting": "ARDS patients", "result": "14.86+/−5.36"}]}
{"molecule": "c1cc(CN2CCCNCCNCCCNCC2)ccc1CN1CCCNCCNCCCNCC1", "note": "[plerixafor]", "values": [{"measurement": "decrease of CXCR4+ neutrophils migration (mean of 6 patients)", "setting": "[1]", "result": "75.8%±5.9%"}, {"measurement": "migration of CXCR4 negative neutrophils (DAPI-CD16+CXCR4-)", "setting": "[1]", "result": "no significant effect"}, {"measurement": "migration of CXCR4 positive neutrophils (DAPI-CD16+CXCR4+)", "setting": "[1]", "result": "strongly and reproducibly decreased"}, {"measurement": "serum-induced recruitment of neutrophils total population (DAPI-CD16+)", "setting": "[1]", "result": "did not significantly reduce"}, {"measurement": "% of neutrophils' migration decrease with plerixafor vs vehicle in response to COVID-19 serum", "setting": "[1]; patient Sg3, 25 μg/mL", "result": 86.6, "unit": "%"}, {"measurement": "% of neutrophils' migration decrease with plerixafor vs vehicle in response to COVID-19 serum", "setting": "[1]; patient Sg87, 25 μg/mL", "result": 72.9, "unit": "%"}, {"measurement": "% of neutrophils' migration decrease with plerixafor vs vehicle in response to COVID-19 serum", "setting": "[1]; patient Sg88, 25 μg/mL", "result": 75.5, "unit": "%"}, {"measurement": "% of neutrophils' migration decrease with plerixafor vs vehicle in response to COVID-19 serum", "setting": "[1]; patient Sg89, 25 μg/mL", "result": 70.0, "unit": "%"}, {"measurement": "% of neutrophils' migration decrease with plerixafor vs vehicle in response to COVID-19 serum", "setting": "[1]; patient Sg92, 25 μg/mL", "result": 77.6, "unit": "%"}, {"measurement": "% of neutrophils' migration decrease with plerixafor vs vehicle in response to COVID-19 serum", "setting": "[1]; patient Sg95, 25 μg/mL", "result": 72.4, "unit": "%"}, {"measurement": "body weight loss kinetic", "setting": "SARS-CoV-2; 10 mg/kg/day", "result": "reduced the mice body weight loss kinetic"}, {"measurement": "body weight loss kinetic", "setting": "SARS-CoV-2; 10 mg/kg/day, listed as Plerixafor", "result": "significant reduction of body weight loss kinetic"}, {"measurement": "time of death (euthanasia at body weight loss superior to 20%)", "setting": "SARS-CoV-2; 10 mg/kg/day, versus vehicle, Wilcoxon test p<0.05", "result": "Significant difference in time of death"}, {"measurement": "average body weight loss", "setting": "SARS-CoV-2; day 5 post infection, 10 mg/kg/day twice daily, vehicle 20.43%±2.88%", "result": "17.6%±1.28%"}, {"measurement": "fraction of treated mice with improved survival", "setting": "SARS-CoV-2; lethal dose of SARS-CoV-2", "result": "44,44%"}, {"measurement": "improvement of survival", "setting": "SARS-CoV-2; lethal dose of SARS-CoV-2, versus vehicle", "result": 20, "unit": "%"}, {"measurement": "effect on level of citrullinated histone H3 / NETosis", "setting": "Citrullinated histone H3", "result": "significantly reduced"}, {"measurement": "effect on level of citrullinated histone H3 / NETosis", "setting": "Citrullinated histone H3; listed as Plerixafor", "result": "slightly decreased"}, {"measurement": "Mean Citrullinated Histone H3 in plasma", "setting": "Citrullinated histone H3; day 7, RNA virus infected, 3 mg/kg/day SC, infected vehicle 2.124, non infected 0.113", "result": "1.428±0.799 absorbance at 450 nm and 1.428 absorbance at 450 nm"}, {"measurement": "decrease of proportion of invasive mechanical ventilation versus placebo", "setting": "severe COVID-19 patients", "result": 46, "unit": "%"}, {"measurement": "proportion of invasive mechanical ventilation in patients with severe COVID-19", "setting": "severe COVID-19 patients; reduced from 50%, 30 μg/kg/hour continuous IV 7 days", "result": 27, "unit": "%"}, {"measurement": "increase of VFDs (ventilator-free days at 28 days)", "setting": "[2]", "result": 2, "unit": "days"}]}
